Experiments:
SIRT1 [1] = assay: SIRT1 mRNA level decreased by UV irradiation, RT-PCR in keratinocytes; type: cell-based, human; conditions: HaCaT cells, 20 mJ/cm^2 UVB, peptide 1, 10, 50 μM, 4 hours after irradiation; FIGS. 7A, 7B
Procedure: The expression of genes related to aging is inhibited when irradiated with UV.
(§1) First, HaCaT cells were seeded in a 6-well plate at a cell density of 5×10^5 cell/well, and then the cells were cultured in DMEM medium containing 10% fetal bovine serum (FBS) for 24 hours. The cultured cells were washed once with serum free DMEM medium, and then the peptide of the present invention was mixed in 1 mL of the serum free DMEM medium at each of concentrations of 1, 10, and 50 μM, and dispensed into the cells. A positive control (PC) was treated with 2.5 mM of N-Acetylcysteine (NaC) instead of the above peptide.
The cells were cultured in a CO2 incubator at 37° C. for 1 hour. The medium of the cultured cells was transferred to a tube (e-tube), 1 ml of PBS was added, and irradiation was performed with 20 mJ/cm^2 of UVB using a UV irradiator (VILBER LOURMAT, Cat No.: 3102-BSU, France). After removing PBS, 900 μL of the medium transferred to the tube was added, and culture was performed in a CO2 incubator at 37° C. for 4 hours. The cultured cells were washed twice with PBS, and then RNA was extracted from the cells using easy blue (iNtRON, Cat. No.: 17061, Korea). The extracted RNA was subjected to RT reaction using a kit (enzynomics, Cat. No.: RT200, Korea). Thereafter, RT-PCR was performed using a PCR kit (enzynomics, Cat. No.: R581T, Korea). […]

SIRT1 [2] = assay: SIRT1 mRNA level by RT-PCR in keratinocytes; type: cell-based, human; conditions: HaCaT cells, peptide 1, 10, 50 μM, 24 hours; FIGS. 3A, 3B
Procedure: as §1, with “3×10^5” for “5×10^5”, “100 nM” for “2.5 mM”, “EGF” for “N-Acetylcysteine (NaC)”, “peptide. The cells were cultured in a CO2 incubator at 37° C. for 24 hours.” for “peptide.”
The cultured cells were washed twice with PBS, and then RNA was extracted from the cells using easy blue (iNtRON, Cat. No.: 17061, Korea). The extracted RNA was subjected to RT reaction using a kit (enzynomics, Cat. No.: RT200, Korea). Thereafter, RT-PCR was performed using a PCR kit (enzynomics, Cat. No.: R581T, Korea). The sequences of the primers of AQP3 and SIRT1 used in RT-PCR and the sequence of the primer of GAPDH used to compare the total RNA amount of each treatment group are shown in [Table 2].

Col1a1 [3] = assay: Col1a1 mRNA level decreased by UV irradiation, RT-PCR in fibroblasts; type: cell-based, mouse; conditions: NIH3T3 cells, 8 J/cm^2 UVA, peptide 1, 10, 50 μM, 6 hours after irradiation; FIGS. 5A, 5B
Procedure: The expression of genes related to extracellular matrix components is inhibited when irradiated with UV.
as §1, with “NIH3T3” for “HaCaT”, “50 μM” for “2.5 mM”, “Quercetin” for “N-Acetylcysteine (NaC)”, “peptide. The cells were cultured in a CO2 incubator at 37° C. for 1 hour.” for “peptide.”
The medium of the cultured cells was transferred to a tube (e-tube), 1 ml of PBS was added, and irradiation was performed with 8 J/cm^2 of UVA using a UV irradiator (VILBER LOURMAT, Cat No.: 3102-BSU, France). After removing PBS, 900 μL of the medium transferred to the tube was dispensed, and culture was performed in a CO2 incubator at 37° C. for 6 hours. The cultured cells were washed twice with PBS, and then RNA was extracted from the cells using easy blue (iNtRON, Cat. No.: 17061, Korea). The amount of RNA extracted was quantified, 1,000 ng of RNA was added per tube, and RT reaction was performed using a kit (enzynomics, Cat. No.: RT200, Korea). […]

Col1a1 [4] = assay: Col1a1 (collagen) gene expression by RT-PCR in fibroblasts; type: cell-based, mouse; conditions: NIH3T3 cells, peptide 1, 10, 50 μM, 24 hours; FIGS. 1A, 1B
Procedure: First, NIH3T3 cells (mouse fibroblast cell line) were seeded in a 6-well plate at a cell density of 3×10^5 cell/well, and then the cells were cultured in DMEM medium containing 10% fetal bovine serum (FBS) for 24 hours. The cultured cells were washed once with serum free DMEM medium, and the peptide of the present invention was mixed in 1 mL of the serum free DMEM medium at each of concentrations of 1, 10, and 50 μM, and dispensed into the cells. A positive control (PC) was treated with 5 ng/ml of TGF-β1 instead of the above peptide. The cells were cultured in a CO2 incubator at 37° C. for 24 hours.
The cultured cells were washed twice with PBS, and RNA was extracted from the cells using easy blue (iNtRON, Cat. No.: 17061, Korea). The amount of RNA extracted was quantified, 1,000 ng of RNA was added per tube, and RT reaction was performed using a kit (enzynomics, Cat. No.: PT200, Korea). RT-PCR was performed using a PCR kit (enzynomics, Cat. No.: […], Korea). The sequences of the primers of collagen, fibronectin, and elastin used in RT-PCR and the sequence of the primer of GAPDH used to compare the total RNA amount of each treatment group are shown in [Table 2].

## LCACCLHNCNECQ
SIRT1 [1]
  mRNA level of SIRT1 decreased by UV irradiation: increased again
SIRT1 [2]
  mRNA level of SIRT1: increased
Col1a1 [3]
  mRNA level of Col1a1 decreased by UV irradiation: increased again
Col1a1 [4]
  expression of the collagen (Col1a1) gene: gradually increased as a concentration of the peptide increased

Reference: patent US20240407993A1, “PEPTIDE HAVING ANTI-AGING ACTIVITY, AND USE THEREOF” (CAREGEN CO., LTD., priority 2021, published 2024)
